Measured values: US20010021697A1, “METHODS AND COMPOSITIONS FOR THE TREATMENT OF MAMMALIAN INFECTIONS EMPLOYING MEDICAMENTS COMPRISING HYMENOPTERA VENOM, PROTEINAGEOUS OR POLYPEPTIDE COMPONENTS THEREOF, OR ANALOGUES OF SUCH PROTEINACEOUS OR POLYPEPTIDE COMPONENTS” (priority 1987, published 2001)
Values joined by “and” are separate entries in the source; they are usually repeats but may differ in a detail not shown here. Equal values may be shown once. Read-outs that look alike come from different tables or passages of the source.

What was measured:
Type in all cases: cell-based
[1] = Relative activity of analogues with respect to native melittin
Experimental: Also some of then analogues mentioned above were tested to determine their relative activities with respect to native melittin. The relative activity is calculated as follows: [formula]

E. coli G1108E = experiment: Checkerboard titration synergy assay of melittin analogues with polymyxin B; conditions: 5 ug/ml peptide with 6 units/ml polymyxin B; delay time until mid-log phase (FIG. 26)
Pseudomonas aeruginosa = conditions: Venom 40 ug/ml; for optical density, AVERAGE: AVERAGE line; for optical density: single replicates
Staphylococcus aureus = conditions: Venom 4 ug/ml; for optical density, AVERAGE: AVERAGE line; for optical density: single replicates
[2] = tested on: kanamycin resistant S. aureus; experiment: Checkerboard titration assay for synergy of honeybee venom with antibiotics (OD660 growth curves)
S. aureus = experiment: Equivalent doses of melittin fraction and whole honeybee venom with and without kanamycin (growth curves); conditions: doses of what is present: KANA = 2.5, MEL = 1.6, HBV = 2 (ug/ml)
[3] = 0 hours after innoculation, doses of what is present: Rifampicin 10 ug/ml
[4] = 0 hours after innoculation, doses of what is present: Rifampicin 20 ug/ml
[5] = 2 hours after innoculation, doses of what is present: Rifampicin 10 ug/ml
[6] = 2 hours after innoculation, doses of what is present: Rifampicin 20 ug/ml
[7] = 4 hours after innoculation, doses of what is present: Rifampicin 10 ug/ml
[8] = 4 hours after innoculation, doses of what is present: Rifampicin 20 ug/ml
[9] = 6 hours after innoculation, doses of what is present: Rifampicin 10 ug/ml
[10] = 6 hours after innoculation, doses of what is present: Rifampicin 20 ug/ml
[11] = 8 hours after innoculation, doses of what is present: Rifampicin 10 ug/ml
[12] = 8 hours after innoculation, doses of what is present: Rifampicin 20 ug/ml
[13] = 12 hours after innoculation, doses of what is present: Rifampicin 10 ug/ml
[14] = 12 hours after innoculation, doses of what is present: Rifampicin 20 ug/ml
[15] = 0 hours after innoculation, doses of what is present: Rifampicin .001 ug/ml
[16] = 0 hours after innoculation, doses of what is present: Rifampicin .01 ug/ml
[17] = 2 hours after innoculation, doses of what is present: Rifampicin .001 ug/ml
[18] = 2 hours after innoculation, doses of what is present: Rifampicin .01 ug/ml
[19] = 4 hours after innoculation, doses of what is present: Rifampicin .001 ug/ml
[20] = 4 hours after innoculation, doses of what is present: Rifampicin .01 ug/ml
[21] = 6 hours after innoculation, doses of what is present: Rifampicin .001 ug/ml
[22] = 6 hours after innoculation, doses of what is present: Rifampicin .01 ug/ml
[23] = 8 hours after innoculation, doses of what is present: Rifampicin .001 ug/ml
[24] = 8 hours after innoculation, doses of what is present: Rifampicin .01 ug/ml
[25] = 12 hours after innoculation, doses of what is present: Rifampicin .001 ug/ml
[26] = 12 hours after innoculation, doses of what is present: Rifampicin .01 ug/ml

Melittin (1-20) - NH2 [Analogue #1]
Relative Activity [1]: 20%

NPS-Melittin: o-nitrophenyl sulfenyl group attached to the number 19 tryptophan residue of natural melittin
relative in vitro activity, place in ascending order (E. coli G1108E): 3

Synthetic Melittin: Synthetic melittin purchased from Peninsula Laboratories, Belmont, Calif.
relative in vitro activity, place in ascending order (E. coli G1108E): 5

Melittin (1-20) - Orn-Orn-Orn-Orn-Gln-Gln-NH2 [Analogue #2]
Relative Activity [1]: 200%
relative in vitro activity, place in ascending order (E. coli G1108E): 6

CO[C@H]1/C=C/O[C@@]2(C)Oc3c(C)c(O)c4c(O)c(c(/C=N/N5CCN(C)CC5)c(O)c4c3C2=O)NC(=O)/C(C)=C\C=C\[C@H](C)[C@H](O)[C@@H](C)[C@@H](O)[C@@H](C)[C@H](OC(C)=O)[C@@H]1C [Rifampicin]
optical density, AVERAGE (Pseudomonas aeruginosa; [3]): .033
optical density (Pseudomonas aeruginosa; [3]): .033
optical density, AVERAGE (Pseudomonas aeruginosa; [4]): .033
optical density (Pseudomonas aeruginosa; [4]): .033
optical density, AVERAGE (Pseudomonas aeruginosa; [5]): .080
optical density (Pseudomonas aeruginosa; [5]): .074 and .084 and .082
optical density, AVERAGE (Pseudomonas aeruginosa; [6]): .057
optical density (Pseudomonas aeruginosa; [6]): .053 and .056 and .063
optical density, AVERAGE (Pseudomonas aeruginosa; [7]): .647
optical density (Pseudomonas aeruginosa; [7]): .630 and .672 and .640
optical density, AVERAGE (Pseudomonas aeruginosa; [8]): .351
optical density (Pseudomonas aeruginosa; [8]): .375 and .326 and .380
optical density, AVERAGE (Pseudomonas aeruginosa; [9]): .837
optical density (Pseudomonas aeruginosa; [9]): .830 (2×) and .850
optical density, AVERAGE (Pseudomonas aeruginosa; [10]): .688
optical density (Pseudomonas aeruginosa; [10]): .660 and .645 and .700
optical density, AVERAGE (Pseudomonas aeruginosa; [11]): .882
optical density (Pseudomonas aeruginosa; [11]): .885 and .895 and .865
optical density, AVERAGE (Pseudomonas aeruginosa; [12]): .737
optical density (Pseudomonas aeruginosa; [12]): .730 and .720 and .760
optical density, AVERAGE (Pseudomonas aeruginosa; [13]): .841
optical density (Pseudomonas aeruginosa; [13]): .842 and .850 and .832
optical density, AVERAGE (Pseudomonas aeruginosa; [14]): .735
optical density (Pseudomonas aeruginosa; [14]): .730 (2×) and .745
optical density, AVERAGE (Staphylococcus aureus; [15]): .046
optical density (Staphylococcus aureus; [15]): .046
optical density, AVERAGE (Staphylococcus aureus; [16]): .046
optical density (Staphylococcus aureus; [16]): .046
optical density, AVERAGE (Staphylococcus aureus; [17]): .072
optical density (Staphylococcus aureus; [17]): .081 (2×) and .072
optical density, AVERAGE (Staphylococcus aureus; [18]): .056
optical density (Staphylococcus aureus; [18]): .056 and .054 and .058
optical density, AVERAGE (Staphylococcus aureus; [19]): .807
optical density (Staphylococcus aureus; [19]): .855 and .765 and .800
optical density, AVERAGE (Staphylococcus aureus; [20]): .107
optical density (Staphylococcus aureus; [20]): .140 and .068 and .112
optical density, AVERAGE (Staphylococcus aureus; [21]): 1.17
optical density (Staphylococcus aureus; [21]): 1.18 and 1.16 and 1.17
optical density, AVERAGE (Staphylococcus aureus; [22]): .277
optical density (Staphylococcus aureus; [22]): .372 and .156 and .304
optical density, AVERAGE (Staphylococcus aureus; [23]): 1.26
optical density (Staphylococcus aureus; [23]): 1.27 and 1.26 (2×)
optical density, AVERAGE (Staphylococcus aureus; [24]): .898
optical density (Staphylococcus aureus; [24]): 1.07 and .625 and 1.00
optical density, AVERAGE (Staphylococcus aureus; [25]): 1.34
optical density (Staphylococcus aureus; [25]): 1.34
optical density, AVERAGE (Staphylococcus aureus; [26]): 1.32
optical density (Staphylococcus aureus; [26]): 1.32 and 1.34 and 1.30

Melittin (1-20) - Arg-Arg-Arg-Arg-Gln-Gln-NH2 [Analogue #5]
Relative Activity [1]: 300%
relative in vitro activity, place in ascending order (E. coli G1108E): 8

Melittin (1-20) - Lys-Arg-Lys-Arg-Gly-Gly-NH2 [Analogue #4]
relative in vitro activity, place in ascending order (E. coli G1108E): 7

NC[C@H]1O[C@H](O[C@H]2[C@H](O)[C@@H](O[C@H]3O[C@H](CO)[C@@H](O)[C@H](N)[C@H]3O)[C@H](N)C[C@@H]2N)[C@H](O)[C@@H](O)[C@@H]1O [Kanamycin]
MEAN A660 ([2]; KANA = 5, HBV = 0, T0): 0.016
MEAN A660 ([2]; KANA = 5, HBV = 0, T2): 0.047
MEAN A660 ([2]; KANA = 5, HBV = 0, T4): 0.204
MEAN A660 ([2]; KANA = 5, HBV = 0, T6): 0.282
MEAN A660 ([2]; KANA = 5, HBV = 0, T8): 0.351
MEAN A660 ([2]; KANA = 5, HBV = 0, T12): 0.751
MEAN A660 ([2]; KANA = 5, HBV = 0, T24): 1.152
MEAN A660 ([2]; KANA = 10, HBV = 0, T0): 0.016
MEAN A660 ([2]; KANA = 10, HBV = 0, T2): 0.047
MEAN A660 ([2]; KANA = 10, HBV = 0, T4): 0.135
MEAN A660 ([2]; KANA = 10, HBV = 0, T6): 0.172
MEAN A660 ([2]; KANA = 10, HBV = 0, T8): 0.200
MEAN A660 ([2]; KANA = 10, HBV = 0, T12): 0.397
MEAN A660 ([2]; KANA = 10, HBV = 0, T24): 1.164
MEAN A660 ([2]; KANA = 20, HBV = 0, T0): 0.016
MEAN A660 ([2]; KANA = 20, HBV = 0, T2): 0.047
MEAN A660 ([2]; KANA = 20, HBV = 0, T4): 0.123
MEAN A660 ([2]; KANA = 20, HBV = 0, T6): 0.145
MEAN A660 ([2]; KANA = 20, HBV = 0, T8): 0.166
MEAN A660 ([2]; KANA = 20, HBV = 0, T12): 0.220
MEAN A660 ([2]; KANA = 20, HBV = 0, T24): 0.975
MEAN A660 ([2]; KANA = 40, HBV = 0, T0): 0.016
MEAN A660 ([2]; KANA = 40, HBV = 0, T2): 0.047
MEAN A660 ([2]; KANA = 40, HBV = 0, T4): 0.116
MEAN A660 ([2]; KANA = 40, HBV = 0, T6): 0.146
MEAN A660 ([2]; KANA = 40, HBV = 0, T8): 0.161
MEAN A660 ([2]; KANA = 40, HBV = 0, T12): 0.184
MEAN A660 ([2]; KANA = 40, HBV = 0, T24): 0.697
MEAN A660 (S. aureus; T0): 0.021
MEAN A660 (S. aureus; T2): 0.080
MEAN A660 (S. aureus; T4): 0.692
MEAN A660 (S. aureus; T6): 1.114
MEAN A660 (S. aureus; T8): 1.217
MEAN A660 (S. aureus; T12): 1.265
MEAN A660 (S. aureus; T24): 1.330
